Measured values reported in paper PMC6831285, “TMTP1-modified Indocyanine Green-loaded Polymeric Micelles for Targeted Imaging of Cervical Cancer and Metastasis Sentinel Lymph Node in vivo” (Theranostics, 2019).

How the values were obtained:
[1] = Photostability under visible light; assay type: physicochemical; conditions: after 1 day of exposure to visible light, 10 μg/mL
Protocol: The effect of the light exposure on the degradation of ITM or IM was determined with visible light at room temperature. The ICG and ICG-loaded micelles were diluted with distilled water to a final concentration of 10 μg/mL and were loaded into a 12-well plate. The fluorescence intensity was measured for up to 6 days. After incubation, the remaining fluorescence of each sample was measured using a spectrofluorometer with excitation and emission wavelengths of 745 nm and 840 nm, respectively. For the quantitative analysis, we normalized the fluorescence signal intensity.

[2] = Plasma pharmacokinetic study; assay type: in vivo, BALB/c-nude mice; conditions: 0.5 mg/kg ICG
Protocol: Normal BALB/c-nude mice were administered intravenously with ITM or free ICG solution at an dose of 10 μg, respectively. At designed time points of 5 min, 10 min, 30 min, 1 h, 2 h, 3 h, 4 h, 8 h and 12 h post- injection, […] blood samples were collected into EDTA tubes and centrifuged at 6000 rpm for 10 min to obtain plasma. A fluorescence spectrophotometer with excitation and emission wavelengths of 745 nm and 840 nm was used to measure the ICG of the supernatant. The ICG content in the plasma was then assayed.

popliteal (PO) LN = test: NIR fluorescence LN imaging of normal mice; assay type: in vivo, BALB/c nude mice; conditions: intradermal injection into right paw, ICG 1.0 mg/kg
Protocol: For the SLN metastasis model, 1 × 10^7 HeLa-luc cells in 15 μL PBS were injected into the right hock of 5-week-old BALB/c-nude mice. The mice were monitored by BLI weekly to detect tumor metastases. After 1 month, tumor was about 5 mm with PO LN metastasis. HeLa-bearing mice were divided two groups randomly (n=10) and injected ITM and IM micelles via foot at equivalent ICG dose of 2 μg. At designed time points (5 min, 30 min, 1 h, 12 h and 24 h), the NIR fluorescence images in vivo were obtained. At 30 min and 1 h post injection, 2 mice from each group were randomly sacrificed and the excised main LNs were imaged. After 24 h post injection, LNs and main organs (heart, liver, spleen, lung, and kidney) were handled as described. In the same way, normal mice were divided into two groups randomly (n=5) and injected intradermally ITM or IM via foot. The NIR fluorescence images were acquired as mentioned above.

fluorescence intensity remaining, of initial value [1]: less than 50%
Cmax ([2]; BALB/c-nude, mouse, iv): 134 ng/mL
MRT ([2]; BALB/c-nude, mouse, iv): 268 min
Tmax ([2]; BALB/c-nude, mouse, iv): 5 min
clearance ([2]; BALB/c-nude, mouse, iv): 18 mL/min/kg
half-life ([2]; BALB/c-nude, mouse, iv): 4 min
AUC(0-t) ([2]; BALB/c-nude, mouse, iv, read-out: AUC (0-12 h) in plasma (converted)): 224 ng·h/mL
V ([2]; i.v.): 21.358 L/kg
Structure (SMILES): CC1(C)C(/C=C/C=C/C=C/C=C2\N(CCCCS(=O)(=O)O)c3ccc4ccccc4c3C2(C)C)=[N+](CCCCS(=O)(=O)[O-])c2ccc3ccccc3c21 [Free ICG, indocyanine green]
time within which the NIR fluorescence signal in SLN decreased quickly (popliteal (PO) LN): ≤ 1 h
